Test results published in PubChem BioAssay (NCI).
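Results reflect a 48-hour exposure of cells in 96-well plates to compound at five concentrations. TGI denotes the concentration required for complete inhibition of growth.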

Assays:
Test in all cases: NCI anticancer screen, dose series, 48 h
SK-MEL-28 melanoma = tested on: SK-MEL-28 melanoma
PC-3 prostate = tested on: PC-3 prostate
U251 CNS = tested on: U251 CNS
SK-OV-3 ovarian = tested on: SK-OV-3 ovarian
OVCAR-3 ovarian = tested on: OVCAR-3 ovarian
K-562 leukemia = tested on: K-562 leukemia
HCT-15 colon = tested on: HCT-15 colon
RPMI-8226 leukemia = tested on: RPMI-8226 leukemia
SK-MEL-5 melanoma = tested on: SK-MEL-5 melanoma
SF-295 CNS = tested on: SF-295 CNS
NCI-H522 lung = tested on: NCI-H522 lung
786-0 renal = tested on: 786-0 renal
NCI-H460 lung = tested on: NCI-H460 lung
MOLT-4 leukemia = tested on: MOLT-4 leukemia
SR leukemia = tested on: SR leukemia
SF-539 CNS = tested on: SF-539 CNS
RXF 393 renal = tested on: RXF 393 renal
HCT-116 colon = tested on: HCT-116 colon
MDA-N = tested on: MDA-N
DU-145 prostate = tested on: DU-145 prostate

Row | SMILES | TGI (SK-MEL-28 melanoma) [µM] | TGI (PC-3 prostate) [µM] | TGI (U251 CNS) [µM] | TGI (SK-OV-3 ovarian) [µM] | TGI (OVCAR-3 ovarian) [µM] | TGI (K-562 leukemia) [µM] | TGI (HCT-15 colon) [µM] | TGI (RPMI-8226 leukemia) [µM] | TGI (SK-MEL-5 melanoma) [µM] | TGI (SF-295 CNS) [µM] | TGI (NCI-H522 lung) [µM] | TGI (786-0 renal) [µM] | TGI (NCI-H460 lung) [µM] | TGI (MOLT-4 leukemia) [µM] | TGI (SR leukemia) [µM] | TGI (SF-539 CNS) [µM] | TGI (RXF 393 renal) [µM] | TGI (HCT-116 colon) [µM] | TGI (MDA-N) [µM] | TGI (DU-145 prostate) [µM]
1 | Fc1ccc(N=C/C=C/Nc2ccc(F)cc2)cc1 | 22 | 22.3 | 20.6 | 28.8 | 31.1 | 22.1 | 15.2 | 52 | 22.3 | 24.2 | 27.6 | 16.4 | 24.7 | 38.5 | 9.17 | 27.2 | 30.5 | 18.9 | 18.5 | 26.7
2 | COC(OC)C1OCC(n2cc(F)c(=O)[nH]c2=O)C1O (stereo not given) | > 100 | > 100 | > 100 | > 100 | > 100 | > 100 | > 100 | > 100 | > 100 | > 100 | > 100 | > 100 | > 100 | > 100 | > 100 | > 100 | > 100 | > 100 | > 100 | > 100
3 | CC12CC3OC(=O)C1COC14OC5(C2C1=O)C(O)(CCC1C4CC2OC24CC=CC(=O)C14C)C(=O)OC35C (stereo not given) | 24.7 | 40.1 | 35.9 | > 100 | 28.7 | > 100 | 37.7 | 71.4 | 11.5 | 69.5 | 19.8 | 28.7 | > 100 | 66.9 | 48.3 | 28.4 | 13.4 | 29.2 | 29.4 | 27.7
4 | CSc1c(C#N)c(N)nc2c(N=Nc3ccc(Br)cc3)c(N)nn12 | 30.8 | 23.5 | 16.8 | 38.1 | 6.77 | 21.4 | 12 | 54.7 | 40.2 | 25.3 | 12 | 11.3 | > 49.1 | 27.3 | 6.76 | 23.6 | 21 | 12.5 | 18.8 | 14.9
